One series deals with HCT-116. Briefly: Antiproliferative activity against human HCT-116 cells measured after 72 hrs by SRB assay. In kind it is functional, cell-based. As to conditions: HCT-116, 72 h.
For a further series, the system named is A549. Briefly: Antiproliferative activity against human A549 cells measured after 72 hrs by SRB assay. As to conditions: A549, 72 h. The class given is functional, cell-based. For orientation: The SRB assay estimates cell density from bound dye.
The subject of the next series is SK-HEP1. Briefly: Antiproliferative activity against human SK-HEP1 cells measured after 72 hrs by SRB assay. The class given is functional, cell-based. The settings on record: SK-HEP1, 72 h.
In a further series the test system is MDA-MB-231. Briefly: Antiproliferative activity against human MDA-MB-231 cells measured after 72 hrs by SRB assay. The class given is functional, cell-based. The settings on record: MDA-MB-231, 72 h.
Series [1] is described as follows: Antiproliferative activity against human MRC5 cells measured after 72 hrs by SRB assay. The class given is toxicity, cell-based.
The next series concerns SNU-638. Briefly: Antiproliferative activity against human SNU-638 cells measured after 72 hrs by SRB assay. In kind it is functional, cell-based. As to conditions: SNU-638, 72 h.
Series [2] can be described thus: Selectivity index, ratio of IC50 for human MRC5 cells to IC50 for human HCT-116 cells. The class given is toxicity. As to conditions: MRC5 cells versus HCT-116 cells, read-out: Selectivity Index.
The nature of series [3]: Selectivity index, ratio of IC50 for human MRC5 cells to IC50 for human A549 cells. The settings on record: MRC5 cells versus A549 cells, read-out: Selectivity Index. The class given is toxicity.
Series [4] can be described thus: Selectivity index, ratio of IC50 for human MRC5 cells to IC50 for human SNU-638 cells. In kind it is toxicity. As to conditions: MRC5 cells versus SNU-638 cells, read-out: Selectivity Index.
Series [5] can be described thus: Selectivity index, ratio of IC50 for human MRC5 cells to IC50 for human SK-HEP1 cells. In kind it is toxicity. As to conditions: MRC5 cells versus SK-HEP1 cells, read-out: Selectivity Index.
The nature of series [6]: Selectivity index, ratio of IC50 for human MRC5 cells to IC50 for human MDA-MB-231 cells. The settings on record: MRC5 cells versus MDA-MB-231 cells, read-out: Selectivity Index. In kind it is toxicity.

Structures are written as SMILES.

Consider `COc1cc([C@@H]2c3cc4c(cc3[C@@H](O[C@@H]3O[C@@H]5CO[C@@H](C)O[C@H]5[C@H](O)[C@H]3O)[C@H]3COC(=O)[C@H]23)OCO4)cc(OC)c1O` [ETOPOSIDE], for which the IC50 (in general, the midpoint of a concentration-inhibition curve) amounted to 1400 nM in the series on HCT-116, 800 nM with A549, 700 nM with SK-HEP1 and 9700 nM in the series with MDA-MB-231. For the same molecule, the IC50 at 72 h in [1] was over 20000 nM.
Turning to `CCC[C@]1(O)C[C@H](O)[C@@H](C)[C@H]([C@H](C)[C@@H]2C/C=C/C=C/C=C/[C@H](O)C(=O)/C(C)=C/C(C)=C/[C@@H](O)/C(C)=C/CC(=O)O2)O1`, the IC50 with HCT-116 amounted to 1300 nM; with A549, 7300 nM; in the series on SNU-638, 2400 nM; with SK-HEP1 it was 2600 nM; in the series with MDA-MB-231 it was 3400 nM. For the same molecule, half-maximal inhibition in series [1] (IC50 at 72 h) was put at 18700 nM. Besides, the selectivity ratio in [2] was 14.2; in series [3] it was 2.6; in series [4], 7.9; in series [5] it was 7.2; in [6] it was 5.5.

Source of the values: ChEMBL document CHEMBL5137007, “Hamuramicin C, a Cytotoxic Bicyclic Macrolide Isolated from a Wasp Gut Bacterium” (J Nat Prod, 2022).
